Several values for one entry are separate records, joined by “and”; a condition that tells them apart may be missing. Identical values can stand only once. Entries after “also recorded” stand apart in the source; their conditions may differ. Like-named read-outs stand apart in the source and are kept apart here.
Assays:
Asu-ACR-16 = Asu-ACR-16 (Ascaris suum, UniProt F1KYJ9); experiment: cell-based; assay type: cell-based
Protocol: (§1) cRNA for oocyte injection was prepared with the mMESSAGE mMACHINE T7 kit following manufacturers protocol (Ambion, USA). Concentration was determined using a Nanodrop spectrophotometer. Desired subunit combinations with associated accessory proteins were mixed and diluted with nuclease-free water to a final concentration of 250 ng/uL for each construct.
(§2) Adult female X. laevis oocyte extraction was performed in accordance with the McGill University Animal Use Protocol 2015–7758 following standard protocol. Briefly, frog ovary lobes were placed in a Ca^2+-free OR2 solution (82 mM NaCl, 2 mM KCl, 1 mM MgCl2, 5 mM HEPES buffer, pH 7.3) and manually divided into clusters of <10 oocytes with thin tweezers followed by a 90-minute incubation in 10 mg/mL collagenase type II (Sigma-Aldrich, USA). Oocytes were washed in Ca^2+-free OR2 and placed ND96 solution (NaCl 96 mM, KCl 2 mM, CaCl2 1.8 mM, MgCl2 1 mM and HEPES 5 mM, pH 7.3) supplemented with sodium pyruvate 2.5 mM [86] and incubated at 18°C until cRNA injection. Oocytes were injected with 50 nL (12.5 ng of each injected gene) of the desired cRNA subunit and accessory protein combination mix with the NanojectII (Drummond Scientific, USA). Following injection, oocytes were incubated in ND96 buffer at 18°C until electrophysiology. All electrophysiology was conducted two days post-injection, except for the expression analysis assay in which oocytes were measured every day after injection for three consecutive days.
(§3) All drugs were dissolved in recording solution (NaCl 100 mM, KCl 2.5 mM, CaCl2 1 mM, HEPES 5 mM, pH 7.3) to a stock concentration of 10 mM and diluted to their final recording concentrations. Oxantel and bephenium were first dissolved in DMSO to ensure a final recording concentration contained less than 0.1% DMSO. For agonist profiling, all drugs were diluted to a concentration of 100 μM.
(§4) Oocytes were placed individually in an RC3Z chamber (Harvard Apparatus, USA) submerged in recording solution (NaCl 100 mM, KCl 2.5 mM, CaCl2 1 mM, HEPES 5 mM, pH 7.3). The RC3Z chamber was connected to a perfusion system containing recording solution and ligand solutions. Pulled glass capillaries (World Precision Instruments, USA) were filled with 3M KCl and the tips clipped and checked for appropriate resistance (between 0.5 and 5 MΩ). A 3M KCl agar bridge grounded the oocyte bath chamber. Measurements were made using an Axon Axoclamp 900A amplifier with Digidata1550M. […] Ligand solutions were applied to the oocytes with an approximate flow rate of 1.2 m/s and current responses measured. Oocytes were exposed to the ligand solution until a distinct current peak was observed followed by a wash with the recording solution until current returned to baseline for a minimum of 10 seconds until the next ligand exposure. For BAPTA-AM exposed oocytes, oocytes were incubated in 100 μM BAPTA-AM for four hours prior to electrophysiology recording. Data was analyzed using Clampex 9.2 (Axon Instruments, USA) and statistical analysis and graphs produced in Prism (GraphPad version 9.1). T-tests were used to compare responses with error bars representing standard error. For concentration-response curves, individual oocyte current response to the different ligand concentrations were normalized to the response obtained with 300 μM. Data was fit using the Graphpad “log(agonist) vs normalized response–variable slope” equation, with 95% confidence intervals being reported. […] For examples of oocyte responses, recordings were filtered in Clampfit using the lowband pass at 40 Hz cutoff.

Dme-ACR-16 = Dme-ACR-16 (Dracunculus medinensis, UniProt A0A0N4U0T6); experiment: cell-based; assay type: cell-based
Protocol: as §1, §2, §3, §4

Bma-ACR-16 = assay type: cell-based, Brugia malayi
Protocol: as §1, §2, §3, §4

[1] = No accessory protein, listed as acetylcholine
[2] = co-injected: Bma-ric-3 (reference condition)
[3] = co-injected: Bma-ric-3 + Bma-eat-18
[4] = co-injected: Bma-ric-3 + Bma-molo-1
[5] = co-injected: Bma-ric-3 + Bma-unc-50 + Bma-unc-74
[6] = co-injected: Bma-ric-3 + Bma-unc-50 + Bma-unc-74 + Bma-eat-18
[7] = co-injected: Bma-ric-3 + Cel-emc-6
[8] = co-injected: Bma-ric-3 + Cel-nra-2 + Cel-nra-4
[9] = co-injected: Hco-ric-3, listed as acetylcholine

Chain of Dme-ACR-16 (A0A0N4U0T6 entry or part of it): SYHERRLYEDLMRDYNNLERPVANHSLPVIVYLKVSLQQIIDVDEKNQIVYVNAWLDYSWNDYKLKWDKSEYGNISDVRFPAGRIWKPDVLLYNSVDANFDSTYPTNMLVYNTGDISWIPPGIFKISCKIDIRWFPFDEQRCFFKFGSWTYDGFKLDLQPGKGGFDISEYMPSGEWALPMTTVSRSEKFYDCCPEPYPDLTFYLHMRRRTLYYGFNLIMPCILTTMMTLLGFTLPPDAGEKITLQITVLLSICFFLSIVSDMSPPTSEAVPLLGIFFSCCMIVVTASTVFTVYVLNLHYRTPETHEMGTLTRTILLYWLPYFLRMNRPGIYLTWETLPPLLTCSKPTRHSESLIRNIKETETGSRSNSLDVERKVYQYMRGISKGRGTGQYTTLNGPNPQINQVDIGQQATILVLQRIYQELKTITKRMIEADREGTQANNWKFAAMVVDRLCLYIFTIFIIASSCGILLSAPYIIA
Chain of Asu-ACR-16 (F1KYJ9 entry or part of it): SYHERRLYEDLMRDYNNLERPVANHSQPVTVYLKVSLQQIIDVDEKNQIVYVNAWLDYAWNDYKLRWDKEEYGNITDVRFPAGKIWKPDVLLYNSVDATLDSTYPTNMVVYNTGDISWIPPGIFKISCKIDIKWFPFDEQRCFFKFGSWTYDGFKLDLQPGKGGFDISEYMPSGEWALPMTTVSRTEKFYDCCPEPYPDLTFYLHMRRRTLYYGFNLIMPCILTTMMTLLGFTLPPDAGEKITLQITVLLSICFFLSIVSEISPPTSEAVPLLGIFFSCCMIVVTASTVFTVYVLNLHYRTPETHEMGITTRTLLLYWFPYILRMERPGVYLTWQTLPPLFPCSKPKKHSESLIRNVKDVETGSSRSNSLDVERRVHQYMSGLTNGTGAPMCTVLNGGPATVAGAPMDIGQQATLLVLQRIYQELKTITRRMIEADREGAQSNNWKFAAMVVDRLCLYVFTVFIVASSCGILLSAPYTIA

For `CC(=O)OCC[N+](C)(C)C` [ACh, acetylcholine], the “response to 100 μM acetylcholine normalized to Day 3 response” value (Asu-ACR-16; Day 1 post-injection) was 44 ± 5%, the “response to 100 μM acetylcholine normalized to Day 3 response” value (Asu-ACR-16; Day 2 post-injection) was 88 ± 5% and the “current response to 100 μM acetylcholine” value (Asu-ACR-16; No accessory protein) was 24 ± 10 nA. For the same compound, the “current response to 100 μM acetylcholine” value (Asu-ACR-16; [1]) was 24 ± 10 (n=11) nA, the “current response to 100 μM acetylcholine” value (Asu-ACR-16; [2]) was 2023 ± 68 nA and the “current response to 100 μM acetylcholine” value (Asu-ACR-16; co-injected: Bma-ric-3 (reference condition), listed as acetylcholine) was 2023 ± 68 (n=11) nA. The “current response to 100 μM acetylcholine” value (Asu-ACR-16; [3]) was 3152 ± 102 (n=13) nA, the “current response to 100 μM acetylcholine” value (Asu-ACR-16; [4]) was 1425 ± 55 (n=15) nA and the “current response to 100 μM acetylcholine” value (Asu-ACR-16; [5]) was 2606 ± 183 (n=10) nA. The “current response to 100 μM acetylcholine” value (Asu-ACR-16; [6]) was 2166 ± 87 (n=12) ns nA, the “current response to 100 μM acetylcholine” value (Asu-ACR-16; [7]) was 2582 ± 89 (n=12) nA and the “current response to 100 μM acetylcholine” value (Asu-ACR-16; [8]) was 2849 ± 152 (n=14) nA. For the same compound, the “current response to 100 μM acetylcholine” value (Asu-ACR-16; co-injected: Hco-ric-3) was 2000–2200 nA and 2052 ± 70 nA, the “current response to 100 μM acetylcholine” value (Asu-ACR-16; [9]) was 2052 ± 66 nA and 2052 ± 66 (n=13) ns nA and the EC50 (Dme-ACR-16) was 12.8 µM. The “response to 100 μM acetylcholine normalized to Day 3 response” value (Dme-ACR-16; Day 1 post-injection) was 49 ± 7%, the “response to 100 μM acetylcholine normalized to Day 3 response” value (Dme-ACR-16; Day 2 post-injection) was 102 ± 7% and the “current response to 100 μM acetylcholine” value (Dme-ACR-16; No accessory protein) was 1290 ± 70 nA. The “current response to 100 μM acetylcholine” value (Dme-ACR-16; [1]) was 1290 ± 70 (n=17) nA, the “current response to 100 μM acetylcholine” value (Dme-ACR-16; [3]) was 2649 ± 112 (n=11) ns nA and the “current response to 100 μM acetylcholine” value (Dme-ACR-16; [4]) was 2354 ± 108 (n=13) ns nA. The “current response to 100 μM acetylcholine” value (Dme-ACR-16; [5]) was 2368 ± 105 (n=13) ns nA, the “current response to 100 μM acetylcholine” value (Dme-ACR-16; [6]) was 2222 ± 62 (n=15) ns nA and the “current response to 100 μM acetylcholine” value (Dme-ACR-16; [7]) was 2183 ± 87 (n=11) ns nA. The “current response to 100 μM acetylcholine” value (Dme-ACR-16; [8]) was 2425 ± 133 (n=12) ns nA, the “current response to 100 μM acetylcholine” value (Dme-ACR-16; co-injected: Hco-ric-3) was 2000–2200 nA and the “current response to 100 μM acetylcholine” value (Dme-ACR-16; [9]) was 2150 ± 59 nA and 2150 ± 59 (n=15) ns nA. The “current response to 100 μM acetylcholine” value (Bma-ACR-16; No accessory protein) was 0 ± 0 (n=12) nA, the “current response to 100 μM acetylcholine” value (Bma-ACR-16; [2]) was “no responses and 0 ± 0 (n=8) nA” and the “current response to 100 μM acetylcholine” value (Bma-ACR-16; [3]) was 0± 0 (n=10) nA. For the same compound, the “current response to 100 μM acetylcholine” value (Bma-ACR-16; co-injected: Bma-ric-3 + Bma-emc-6 + Cel-nra-2 + Cel-nra-4) was 11 ± 9 nA, the “current response to 100 μM acetylcholine” value (Bma-ACR-16; co-injected: Bma-ric-3 + Bma-emc-6 + Cel-nra-2 + Cel-nra-4 + Bma-eat-18) was 2 ± 1 nA and the “current response to 100 μM acetylcholine” value (Bma-ACR-16; co-injected: Bma-ric-3 + Bma-emc-6 + Cel-nra-2 + Cel-nra-4 + Bma-eat-18 + Bma-unc-50 + Bma-unc-74) was 0 ± 0 nA. The “current response to 100 μM acetylcholine” value (Bma-ACR-16; co-injected: Bma-ric-3 + Bma-emc-6 + Cel-nra-2 + Cel-nra-4 + Bma-eat-18 + Bma-unc-50 + Bma-unc-74, listed as acetylcholine) was 0 ± 0 (n=11) nA, the “current response to 100 μM acetylcholine” value (Bma-ACR-16; co-injected: Bma-ric-3 + Bma-emc-6 + Cel-nra-2 + Cel-nra-4 + Bma-eat-18, listed as acetylcholine) was 2 ± 1 (n=12) ns nA and the “current response to 100 μM acetylcholine” value (Bma-ACR-16; co-injected: Bma-ric-3 + Bma-emc-6 + Cel-nra-2 + Cel-nra-4, listed as acetylcholine) was 11 ± 9 (n=11) ns nA. The “current response to 100 μM acetylcholine” value (Bma-ACR-16; [4]) was 0 ± 0 (n=16) nA, the “current response to 100 μM acetylcholine” value (Bma-ACR-16; [5]) was 0 ± 0 (n=5) nA and the “current response to 100 μM acetylcholine” value (Bma-ACR-16; [6]) was 0 ± 0 (n=13) nA. The “current response to 100 μM acetylcholine” value (Bma-ACR-16; [7]) was 17 ± 4 nA and 17 ± 4 (n=13) nA, the “current response to 100 μM acetylcholine” value (Bma-ACR-16; co-injected: Bma-ric-3 + Cel-nra-2) was 33 ± 9 nA and the “current response to 100 μM acetylcholine” value (Bma-ACR-16; co-injected: Bma-ric-3 + Cel-nra-2 + Cel-nra-4, listed as acetylcholine) was 4 ± 2 nA and 4 ± 2 (n=12) nA. The “current response to 100 μM acetylcholine” value (Bma-ACR-16; co-injected: Bma-ric-3 + Cel-nra-2, listed as acetylcholine) was 33 ± 9 (n=14) nA, the “current response to 100 μM acetylcholine” value (Bma-ACR-16; co-injected: Bma-ric-3 + Cel-nra-4) was 31 ±13 nA and the “current response to 100 μM acetylcholine” value (Bma-ACR-16; co-injected: Bma-ric-3 + Cel-nra-4, listed as acetylcholine) was 31 ± 13 (n=12) ns nA. For the same compound, the “current response to 100 μM acetylcholine” value (Bma-ACR-16; co-injected: Hco-ric-3) was “no measurable current; also recorded: no responses” and the “current response to 100 μM acetylcholine” value (Bma-ACR-16; [9]) was 0 ± 0 nA and 0 ± 0 (n=12) nA.

From publication PMC9714921 (PLOS Pathogens, 2022)
